Source: patent EP4438597A1, “2-STYRYLBENZOTHIAZOLE DERIVATIVES AS A-SYNUCLEIN BINDING COMPOUNDS” (Eberhard Karls Universität Tübingen Medizinische Fakultät, priority 2023, dated 2024)

Experiments:
αSYN fibrils [1] = biological target: T1, αSYN fibrils (Homo sapiens, UniProt P37840); assay: [3H]PiB competition binding assay on αSYN fibrils
Method: (§1) Concentrations of αSYN and Aβ1-42 fibrils were as described above.
Plates were incubated on a shaker (MaxQ 6000, Thermo Fisher Scientific Inc., Marietta, OH, USA) at 50 rpm for 2 hours at 37°C, covered by removable sealing tapes (PerkinElmer, Waltham, MA, USA). […] Data points were fitted using non-linear regression analysis in GraphPad Prism (GraphPad Software, Inc., Version 8.4.0, La Jolla, USA).

Aβ1-42 fibrils = biological target: T2, Aβ1-42 fibrils (Homo sapiens, UniProt P05067); assay: [3H]PiB competition binding assay on Aβ fibrils; settings: for binding to Aβ fibrils (competition with [3H]PiB): [3H]PiB competition on Aβ fibrils
T2 construct: Synthetic lyophilized human Aβ1-42 peptide; purchased EMC Microcollections, Tuebingen, Germany; host or cells: chemical synthesis
Text: The method for Aβ1-42 fibrils generation was adapted from Bagchi, D. P. et al., Binding of the radioligand SIL23 to alpha-synuclein fibrils in Parkinson disease brain tissue establishes feasibility and screening approaches for developing a Parkinson disease imaging agent; PLoS One 2013, 8 (2), e55031, and described in Kuebler, L. et al., [11C]MODAG-001-towards a PET tracer targeting α-synuclein aggregates; European Journal of Nuclear Medicine and Molecular Imaging 2020, 48, 1759-1772. Synthetic lyophilized human Aβ1-42 peptide (5 mg) with >90 % purity (EMC Microcollections, Tuebingen, Germany) was dissolved in DMSO (221.5 µL), followed by the addition of deionized water (4.1 mL) and 1 M Tris-HCl (111 µL, pH 7.6) to reach a final monomeric concentration of 250 µM. Aggregation was induced by incubation in Eppendorf Thermomixer at 37°C with shaking at 800 rpm for 72 hours. The resulted fibrils were sonicated for 3 min in a water bath (Elmasonic S 60 H, Elma Schmidbauer GmbH, Singen, Germany). The final products were aliquoted, frozen on dry ice, and stored at -80°C until use.
as §1
(§2) Plates were incubated on a shaker (MaxQ 6000, Thermo Fisher Scientific Inc., Marietta, OH, USA) at 50 rpm for 2 hours at 37°C, covered by removable sealing tapes (PerkinElmer, Waltham, MA, USA). Vacuum filtration and read-out were performed as disclosed in Kuebler, L. et al., [11C]MODAG-001-towards a PET tracer targeting α-synuclein aggregates; European Journal of Nuclear Medicine and Molecular Imaging 2020, 48, 1759-1772. […] Data points were fitted using non-linear regression analysis in GraphPad Prism (GraphPad Software, Inc., Version 8.4.0, La Jolla, USA).

αSYN fibrils [2] = biological target: T1, αSYN fibrils; assay: [3H]MODAG-001 competition binding assay on αSYN fibrils; settings: for Ki: competition with [3H]MODAG-001, αSYN fibrils
Method: as §1, §2

αSYN pathology = biological target: T3, αSYN pathology (Homo sapiens, UniProt P37840); assay: in vitro autoradiography on human brain slices with αSYN pathology (MSA, PD); assay type: binding; settings: mean over MSA brain slices
T3 construct: tissue Neurobiobank München (NBM, Munich, Germany); host or cells: post-mortem human brain slices (MSA cerebellum, PD frontal cortex, controls)
Method: Post-mortem human brain slices (10 µm thickness) were obtained from and the subject cases were analyzed by the Neurobiobank München (NBM, Munich, Germany), where tissues were collected on the basis of written informed consent according to the guidelines of the ethics committee of the Ludwig-Maximilians-University Munich, Germany (# 345-13). The use of brain tissue samples in this study was approved by the ethics committee of the Faculty of Medicine at the University of Tuebingen (Ethics approval number: 813/2018BO2). Table 1 summarizes the information of the subjects from which samples were obtained and used in the experiment.
For autoradiography, brain slices were thawed for one hour before preincubation in BSA buffer for 25 minutes at room temperature. To determine total binding (TB), brain slices were incubated with the tracer (10 nM [^18F]PFSB, 10 nM [^18F]MFSB). […]
Quantitative data analysis was performed by drawing four regions of interest (ROIs) in relevant areas of the slice and one ROI next to it for background subtraction (imaged 1.8.0_172, National Institute of Health, Bethesda, Maryland, USA) (Schneider, C. A. et al., NIH Image to imaged: 25 years of image analysis; Nat Methods 2012, 9 (7), 671-5). […] The SB disease/SB control ratio was calculated by dividing by the SB in diseased tissues with the respective SB in control tissues.

[3] = [3H]PiB competition, αSYN fibrils, mean Ki ± SEM, two data points (9a, 14a, 15a, 17a, 18a, 43, 44, MFSB three; 12a single), read-out: Ki

T2 sequence (P05067 672-713 limits assumed): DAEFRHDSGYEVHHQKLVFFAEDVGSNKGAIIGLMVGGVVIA

SMILES | Ki (αSYN fibrils [1]; read-out: Ki) [nM] | other results
COc1cccc2c1sc(C=Cc1ccc(N3CCCCC3)cc1)[n+]2C [11b, 7-methoxy-3-methyl-2-(4-(piperidin-1-yl)styryl)benzo[d]thiazol-3-ium iodide] | 206 ± 28.2 | 
Cc1ccc2sc(C=Cc3ccc(N4CCCCC4)cc3)nc2c1 [4a, 5-methyl-2-(4-(piperidin-1-yl)styryl)benzo[d]thiazole] | 161 ± 72.7 | 
C(C=Cc1nc2ccccc2s1)=Cc1ccc(N2CCCCC2)cc1 [14a, 2-(4-(4-(piperidin-1-yl)phenyl)buta-1,3-dien-1-yl)benzo[d]thiazole] |  | Ki (αSYN fibrils [1]; [3]): 81.9 ± 15.6 nM
Fc1ccc2nc(C=CC=Cc3ccc(N4CCCCC4)cc3)sc2c1 [compound 43, 6-fluoro-2-(4-(4-(piperidin-1-yl)phenyl)buta-1,3-dien-1-yl)benzo[d]thiazole] |  | Ki (αSYN fibrils [1]; [3]): 214 ± 122 nM; binding to Aβ fibrils (competition with [3H]PiB) (Aβ1-42 fibrils): low
Cc1ccc2nc(C=Cc3ccc(N4CCCCC4)cc3)sc2c1 [7a, 6-methyl-2-(4-(piperidin-1-yl)styryl)benzo[d]thiazole] | 224 ± 6.1 | 
Fc1cccc2sc(C=Cc3ccc(N4CCCCC4)cc3)nc12 [3a, 4-fluoro-2-(4-(piperidin-1-yl)styryl)benzo[d]thiazole] | 149 ± 38 | 
Fc1ccc2nc(C=Cc3ccc(N4CCCCC4)cc3)sc2c1 (mixture of isomers) [9a, 6-fluoro-2-(4-(piperidin-1-yl)styryl)benzo[d]thiazole] |  | Ki (αSYN fibrils [1]; [3]): 25.4 ± 2.3 nM; Ki (αSYN fibrils [2]): 142 ± 16.9 nM
Cc1ccc2sc(C=Cc3ccc(N4CCCCC4)cc3)[n+](C)c2c1 [4b, 3,5-dimethyl-2-(4-(piperidin-1-yl)styryl)benzo[d]thiazol-3-ium iodide] | 72.2 ± 12.4 | 
C[n+]1c(C=CC=Cc2ccc(N3CCCCC3)cc2)sc2ccccc21 [14b, 3-methyl-2-(4-(4-(piperidin-1-yl)phenyl)buta-1,3-dien-1-yl)benzo[d]thiazol-3-ium iodide] | 19.9 ± 3.1 | 
Cc1cccc2c1sc(C=Cc1ccc(N3CCCCC3)cc1)[n+]2C [10b, 3,7-dimethyl-2-(4-(piperidin-1-yl)styryl)benzo[d]thiazol-3-ium iodide] | 148 ± 83.7 | 
Fc1ccc2nc(C=Cc3ccc(N4CCOCC4)cc3)sc2c1 [compound 45, 4-(4-(2-(6-fluorobenzo[d]thiazol-2-yl)vinyl)phenyl)morpholine] |  | affinity improved by factor compared to PFSB (αSYN fibrils [1]; [3H]PiB competition, αSYN fibrils, MFSB vs PFSB): 2.5; Ki (αSYN fibrils [1]; [3]): 10.3 ± 4.7 nM; selectivity towards αSYN over Aβ (Aβ1-42 fibrils; from [3H]PiB competition on αSYN and Aβ fibrils): remained unchanged; fold lower Ki than PFSB (αSYN fibrils [2]; [3H]MODAG-001 competition, MFSB vs PFSB): 4.6 fold; Ki (αSYN fibrils [2]): 30.8 ± 10.5 nM
Fc1ccc2sc(C=Cc3ccc(N4CCCCC4)cc3)nc2c1 [6a, 5-fluoro-2-(4-(piperidin-1-yl)styryl)benzo[d]thiazole] | 147 ± 22.3 | 
C[n+]1c(C=Cc2ccc(N3CCCCC3)cc2)sc2ccc(F)cc21 [6b, 5-fluoro-3-methyl-2-(4-(piperidin-1-yl)styryl)benzo[d]thiazol-3-ium iodide] | 352 ± 83.5 | 
Cc1ccc2c(c1)sc(C=Cc1ccc(N3CCCCC3)cc1)[n+]2C [7b, 3,6-dimethyl-2-(4-(piperidin-1-yl)styryl)benzo[d]thiazol-3-ium iodide] | 20.3 ± 3.5 | 
C(=Cc1nc2ccccc2s1)c1ccc(N2CCSCC2)cc1 [16a, 2-(4-thiomorpholinostyryl)benzo[d]thiazole] | 139 ± 80.2 | 
[18F]c1ccc2nc(/C=C/c3ccc(N4CCCCC4)cc3)sc2c1 [[^18F]PFSB] |  | specific binding (SB) ratio, MSA patients compared to control of the same brain area (αSYN pathology): 3.94 ± 0.30

SMILES | Ki (αSYN fibrils [1]; read-out: Ki) [nM] | other results
Fc1cccc2nc(C=Cc3ccc(N4CCCCC4)cc3)sc12 [12a, 7-fluoro-2-(4-(piperidin-1-yl)styryl)benzo[d]thiazole] |  | Ki (αSYN fibrils [1]; [3]): 283 nM
COc1ccc2c(c1)sc(C=Cc1ccc(N3CCCCC3)cc1)[n+]2C [8b, 6-methoxy-3-methyl-2-(4-(piperidin-1-yl)styryl)benzo[d]thiazol-3-ium iodide] | 14.7 ± 5.1 | 
C(=Cc1nc2ccccc2s1)c1ccc(N2CCCC2)cc1 [17a, 2-(4-(pyrrolidin-1-yl)styryl)benzo[d]thiazole] |  | Ki (αSYN fibrils [1]; [3]): 73.4 ± 19 nM
c1ccc2sc(-c3ccc(N4CCCCC4)cc3)nc2c1 [13a, 2-(4-(piperidin-1-yl)phenyl)benzo[d]thiazole] | 73.3 ± 61.2 | 
COc1ccc2nc(C=Cc3ccc(N4CCCCC4)cc3)sc2c1 [8a, 6-methoxy-2-(4-(piperidin-1-yl)styryl)benzo[d]thiazole] | 106 ± 3.6 | 
C(=Cc1nc2ccccc2s1)c1ccc(N2CCCCC2)cc1 [compound 20, 2-(4-(piperidin-1-yl)styryl)benzo[d]thiazole] | 102 ± 68.5 | 
Cc1cccc2sc(C=Cc3ccc(N4CCCCC4)cc3)nc12 [1a, 4-methyl-2-(4-(piperidin-1-yl)styryl)benzo[d]thiazole] | 135 ± 63.5 | 
Fc1ccc2nc(C=CC=Cc3ccc(N4CCCC4)cc3)sc2c1 [compound 44, 6-fluoro-2-(4-(4-(pyrrolidin-1-yl)phenyl)buta-1,3-dien-1-yl)benzo[d]thiazole] |  | Ki (αSYN fibrils [1]; [3]): 85 ± 41 nM; binding to Aβ fibrils (competition with [3H]PiB) (Aβ1-42 fibrils): low
C(=Cc1nc2ccccc2s1)c1ccc(N2CCOCC2)cc1 [15a, 4-(4-(2-(benzo[d]thiazol-2-yl)vinyl)phenyl)morpholine] |  | Ki (αSYN fibrils [1]; [3]): 92 ± 30.3 nM
COc1cccc2sc(C=Cc3ccc(N4CCCCC4)cc3)[n+](C)c12 [2b, 4-methoxy-3-methyl-2-(4-(piperidin-1-yl)styryl)benzo[d]thiazol-3-ium iodide] | 52.6 ± 18.3 | 
COc1ccc2sc(C=Cc3ccc(N4CCCCC4)cc3)[n+](C)c2c1 [5b, 5-methoxy-3-methyl-2-(4-(piperidin-1-yl)styryl)benzo[d]thiazol-3-ium iodide] | 95.2 ± 67.7 | 
COc1ccc2sc(C=Cc3ccc(N4CCCCC4)cc3)nc2c1 [5a, 5-methoxy-2-(4-(piperidin-1-yl)styryl)benzo[d]thiazole] | 158 ± 29.7 | 
FC1CCN(c2ccc(C=Cc3nc4ccccc4s3)cc2)CC1 [18a, 2-(4-(4-fluoropiperidin-1-yl)styryl)benzo[d]thiazole] |  | Ki (αSYN fibrils [1]; [3]): 99.8 ± 32.6 nM
C[n+]1c(C=Cc2ccc(N3CCCCC3)cc2)sc2cc(F)ccc21 [9b, 6-fluoro-3-methyl-2-(4-(piperidin-1-yl)styryl)benzo[d]thiazol-3-ium iodide] | 189 ± 146 | 
C[n+]1c(C=Cc2ccc(N3CCCC3)cc2)sc2ccccc21 [17b, 3-methyl-2-(4-(pyrrolidin-1-yl)styryl)benzo[d]thiazol-3-ium iodide] | 102 ± 43 | 
Cc1cccc2sc(/C=C/c3ccc(N4CCCCC4)cc3)[n+](C)c12 [1b, 3,4-dimethyl-2-(4-(piperidin-1-yl)styryl)benzo[d]thiazol-3-ium 4-nitrobenzenesulfonate] |  | Ki (αSYN fibrils [1]): 60 ± 23.9 nM
